Measured values from patent publication US8334403B1, “C-lysine conjugates as pH-controlled, light-activated reagents for double stranded DNA cleavage and associated methods” (Florida State University Research Foundation, Inc., priority 2005, dated 2012).

What was measured:
[1] = system: three human clear cell renal cell carcinoma (RCC) cell lines (UMRC3, UMRC6, 786-O); assay: RCC cell proliferation assay, three cell lines together; assay type: cell-based; conditions: 10 μM
Procedure: FIG. 23 provides the results of cell proliferation assays using three different RCC cell lines: (a) UMRC3, (b) UMRC6 and (c) 786-O, and compounds I-5; RCC cells were resuspended in media and treated with UV radiation (350 nm) for 10 minutes with and without indicated compounds; control cells were exposed to the indicated compound 1-5 at final concentration of 10 μM; cell numbers determined after 72 hours as described in the SI Section;
The ability of compounds 1-5 to inhibit cell proliferation in three human clear cell renal cell carcinoma (RCC) cell lines was tested in the dark and under photoactivation (FIG. 23). No difference was detected in the control experiments between cells not exposed to UV versus those that were exposed to UV at 350 nm for 10 minutes in any of the three RCC cell lines tested (FIG. 23 A, B & C; first two columns).

[2] = system: pBR322 plasmid DNA; assay: Plasmid relaxation assay: DNA photocleavage of supercoiled plasmid under UV irradiation; assay type: biochemical; conditions: pH 6, 15 μM, 10 min of UV irradiation
Procedure: General information. ^1H, ^13C and ^19F NMR were collected on a Varian Gemini 300 MHz NMR spectrometer and a Bruker 300 MHz NMR spectrometer. Mass spectrometry data was collected on a Jeol JMS-600H. UV spectra were recorded on a Shimadzu UV-2100. Fluorescence spectra were obtained with SPEX FluoMax spectrofluorimeter using right-angle geometry. pH was adjusted with AB 15 plus pH meter (Accument) after standardization at 25° C. All buffers were prepared and pH-adjusted at room temperature (25° C.). Plasmid DNA Photocleavage. pBR322 plasmid DNA (4,361 b/p; from BioLabs Inc., 1 μg/μL solution in 10 mM Tris-HCl (pH 8.0), and 1 mM EDTA buffer) was diluted to a concentration of 0.01 μg/μL. The solution containing cleavage agent, DNA (30 μM/bp) in 20 mM sodium phosphate buffer was incubated for 1 hour at 30° C. Samples were placed on ice at a distance of 20 cm from 200 W Hg—Xe lamp (Spectra-Physics, Laser & Photonics Oriel Instruments with long pass filter with 324 nm cut-off wavelength). Electrophoretic Analysis. The gel electrophoresis was carried out in 1×TBE buffer at 80 V using Miligel FisherBiotech Horizontal Electrophoresis System. All gels were run on 1% agarose slab gels. Before loading, the DNA samples were mixed with 0.33 volume of tracking dye containing bromophenol blue (0.25%) and glycerol (30%) in water. After staining in ethidium bromide solution (2 μg/ml) for 1 hour, the gel was washed with water and pictures were taken with Polaroid 3000ISO type 667 film. The relative quantities of the supercoiled, nicked, and linear DNA were calculated by integrating the “area” of each spot by the image analyzer software Total/Lab (Nonlinear Dynamics Ltd., UK). The amount of supercoiled DNA was multiplied by factor of 1.4 to account for reduced ethidium bromide intercalation into supercoiled DNA. pH titration by ^1H-NMR. pH* of compound 8 (3 mM) solution in D2O containing 0.05 wt % 3-(trimethylsilyl)propionic-2,2,3,3-d4 acid, sodium salt (TSP-d4) was adjusted with 10 wt % DCI and NaOD in D2O at 25° C. under argon purged condition. Spectrometric determinations of pKa. pH of 10 μM of compound solution in H2O was adjusted with 10, 100 mM HCl (aq) and NaOH (aq) solution under argon purged condition. Excitation wavelength was 330 nm and polymethacrylate fluorimeter cuvettes were used. Absorbance and fluorescence titration with DNA. The concentrations of calf thymus DNA stock solution was determined spectophotometrically using the following molar absorptovity values: 1.32×10^4 M^−1 cm^−1 (per base pair) at 260 nm. All experiments were done in 20 mM sodium phosphate buffer at 25° C. and polymethacrylate fluorimeter cuvettes were used. The same amount of DNA was added to both sample and reference cuvettes during UV/Vis titration. Determination of excited state lifetimes. The concentration of compound solution was 10 μM in 20 mM sodium phosphate buffer. The photoluminescence lifetime measurements were conducted by exciting the samples with the output of a Nd:VO—4 (Spectra-Physics Vanguard, 2 W, 532 nm, 76 MHz, 10 ps) pumped R6G dye laser (Coherent 702-1). The output of the dye laser (600 nm, Rhodamine 6G) was cavity dumped at 1.9 MHz and frequency doubled using a BBO crystal to excite the fluorophore (the excitation wavelength used was 290 nm). Samples were excited with <1 mW power and the emission was collected at right angles onto a Chromex S3 500 is 0.5 m imaging monochromator with a 50 g/mm grating and 0.5 nm resolution. Output of the monochromator is focused into a Hamamatsu C5680 streak camera operating at a 20 ns window for the fluorophore. Intensity analysis was carried out by integrating the spectral profile in time on the streak camera. Lifetime analysis over 6-7 lifetimes of the fluorophore was conducted by binning the photoluminescence intensity collected on the streak camera over a 20 nm spectral window at the centroid value of the emission of the fluorophore. Ethidium bromide displacement. […]

[3] = Fluorometric (emission) determination of pKa; assay type: physicochemical; conditions: emission; α-amino group (4, 6), ε-amino group (7)
Procedure: (§1) General information. ^1H, ^13C and ^19F NMR were collected on a Varian Gemini 300 MHz NMR spectrometer and a Bruker 300 MHz NMR spectrometer. Mass spectrometry data was collected on a Jeol JMS-600H. UV spectra were recorded on a Shimadzu UV-2100. Fluorescence spectra were obtained with SPEX FluoMax spectrofluorimeter using right-angle geometry. pH was adjusted with AB 15 plus pH meter (Accument) after standardization at 25° C. All buffers were prepared and pH-adjusted at room temperature (25° C.). Plasmid DNA Photocleavage. pBR322 plasmid DNA (4,361 b/p; from BioLabs Inc., 1 μg/μL solution in 10 mM Tris-HCl (pH 8.0), and 1 mM EDTA buffer) was diluted to a concentration of 0.01 μg/μL. The solution containing cleavage agent, DNA (30 μM/bp) in 20 mM sodium phosphate buffer was incubated for 1 hour at 30° C. Samples were placed on ice at a distance of 20 cm from 200 W Hg—Xe lamp (Spectra-Physics, Laser & Photonics Oriel Instruments with long pass filter with 324 nm cut-off wavelength). Electrophoretic Analysis. The gel electrophoresis was carried out in 1×TBE buffer at 80 V using Miligel FisherBiotech Horizontal Electrophoresis System. All gels were run on 1% agarose slab gels. Before loading, the DNA samples were mixed with 0.33 volume of tracking dye containing bromophenol blue (0.25%) and glycerol (30%) in water. After staining in ethidium bromide solution (2 μg/ml) for 1 hour, the gel was washed with water and pictures were taken with Polaroid 3000ISO type 667 film. The relative quantities of the supercoiled, nicked, and linear DNA were calculated by integrating the “area” of each spot by the image analyzer software Total/Lab (Nonlinear Dynamics Ltd., UK). The amount of supercoiled DNA was multiplied by factor of 1.4 to account for reduced ethidium bromide intercalation into supercoiled DNA. pH titration by ^1H-NMR. pH* of compound 8 (3 mM) solution in D2O containing 0.05 wt % 3-(trimethylsilyl)propionic-2,2,3,3-d4 acid, sodium salt (TSP-d4) was adjusted with 10 wt % DCI and NaOD in D2O at 25° C. under argon purged condition. Spectrometric determinations of pKa. pH of 10 μM of compound solution in H2O was adjusted with 10, 100 mM HCl (aq) and NaOH (aq) solution under argon purged condition. Excitation wavelength was 330 nm and polymethacrylate fluorimeter cuvettes were used. Absorbance and fluorescence titration with DNA. The concentrations of calf thymus DNA stock solution was determined spectophotometrically using the following molar absorptovity values: 1.32×10^4 M^−1 cm^−1 (per base pair) at 260 nm. All experiments were done in 20 mM sodium phosphate buffer at 25° C. and polymethacrylate fluorimeter cuvettes were used. The same amount of DNA was added to both sample and reference cuvettes during UV/Vis titration. Determination of excited state lifetimes. The concentration of compound solution was 10 μM in 20 mM sodium phosphate buffer. The photoluminescence lifetime measurements were conducted by exciting the samples with the output of a Nd:VO—4 (Spectra-Physics Vanguard, 2 W, 532 nm, 76 MHz, 10 ps) pumped R6G dye laser (Coherent 702-1). The output of the dye laser (600 nm, Rhodamine 6G) was cavity dumped at 1.9 MHz and frequency doubled using a BBO crystal to excite the fluorophore (the excitation wavelength used was 290 nm). Samples were excited with <1 mW power and the emission was collected at right angles onto a Chromex S3 500 is 0.5 m imaging monochromator with a 50 g/mm grating and 0.5 nm resolution. […]

[4] = UV-absorption titration determination of pKa; assay type: physicochemical; conditions: absorption; α-amino group (4, 6), ε-amino group (7)
Procedure: as §1

Cl.Cl.NCCCC[C@H](N)C(=O)Nc1ccc(C#Cc2ccccc2)cc1 [Compound 5, (S)-2,6-Diaminohexanoic acid [4-(phenylethynyl)-phenyl]-amide dihydrochloride]
cytotoxicity in the dark [1]: considerably less cytotoxic in the dark

C[C@H](N)C(=O)Nc1ccc(C#Cc2c(F)c(F)nc(F)c2F)cc1.Cl [Compound 6, (S)-2-Amino-propanoic acid [4-(2,3,5,6-tetrafluoro-pyridin-4-ylethynyl)-phenyl]-amide hydrochloride]
ds-cleavage [2]: do not produce any ds-cleavage
pKa1 [3]: 7.6
pKa1 [4]: 7.4
